Assays:
[1] = test system: matrigel plug angiogenesis; assay: Mouse matrigel model of angiogenesis (plug hemoglobin); assay type: in vivo, mice (C57BL/6NCr)
Method: Normal male mice (C57BL/6NCr) 6-8 weeks of age and weighing ˜20 g were purchased from Taconic farm. Animals were housed 4 per cage, in controlled conditions of temperature (20-24° C.); humidity (60-70%) and 12 hrs. light/dark cycle provided with food and water ad libitum. […] Aliquots of matrigel were placed into cold polypropylene tubes to prevent the matrigel from solidifying and the angiogenesis promoter added to matrigel with or without agonist. Mice were treated daily. Matrigel was subcutaneously injected as triple injection per animal at 100 μL/animal. At day 14 post plug implant all animals were killed in CO2 chamber and matrigel plugs were collected. Plug hemoglobin content was analyzed from three implants/mice (n=6 per group) to measure angiogenesis.
The matrigel plugs dissected from the mice were carefully stripped of any remaining peritoneum. The plugs were placed into 0.5 mL tube of ddH2O and homogenized for 5-10 min. […] Absorbance was read with a Microplate Manager ELISA reader at 540 nm. […] Hemoglobin concentration is a reflection of the number of blood vessels in the plugs.

[2] = Solubility; assay type: physicochemical
Method: Yield: 50%; off-white solid; recrist. solvent.: EtOH; TLC: Rf=0.43 (EtOAc/EtOH 9/1); RPTLC: Rf=0.43 (AcOH/H2O 8/2); mp=136° C.; IR (υ cm^−1): 1730 (CO); ^1H NMR (DMSO-d 6) δ (ppm): 7.79 (s, 2H, ArH), 7.14 (s, 2H, ArH), 4.06-4.02 (m, 2H, CH2), 3.93-3.89 (q, J=7.0 Hz, 2H, CH2), 3.59-3.56 (t, J=7.0 Hz, 1H, CH), 2.80-2.77 (m, 2H, CH2), 1.88 (br, 1H, NH), 1.41-1.39 (t, J=7.0 Hz, 3H, CH3), 1.15-1.12 (t, J=7.0 Hz, 3H, CH3); MS (ESI+) m/z 911.7[(M+DMSO)^+, 100], 833.7 [(M+H)+, 75]; Anal. Calcd. for C19H19I4NO4: C, 27.40; H, 2.30; N, 1.68. Found: C, 27.54; H, 1.94; N, 1.66. Solubility 10^−3M in water after preparing a solution at 10^−1M in DMSO.
When looking at the amorphous state, the solid was not stable and quickly returned to the crystal state. Thus, Tetrac was used as a salt with Na^+ as the counterion which reduced the use of DMSO to 10%. Then all analogs were solubilized with 10% DMSO in water for the TiPS protected analogs and in PBS for the others.

[3] = test system: MDA-MB-231 cells gene expression; assay: RNA microarray of MDA-MB-231 cells (Example 16); assay type: cell-based, human
Method: MDA-MB-231 cells were purchased from ATCC (Manassas, Va.). Cells were maintained until use in DMEM that contained 10% FBS. The incubator conditions were 5% CO2/95% 02 and 37° C. The action of unmodified Tetrac and nanoparticulate on MDA-MB-231 cells was determined in a perfusion bellows cell culture system we have recently described for quantitating pharmaceutical agent pharmacodynamics in vitro. (See Lin et al., J Steroid Biochem Mol Biol 113: 182-188 (2009)). In brief, the cell culture system is a disposable bioreactor capable of high density cell culture for studies of anti-cancer drugs. Bellows-induced alternate flow of culture medium and air through porous matrices where cells are grown provides a relatively low shear, high aeration, foam-free culture environment. Medium level is raised and lowered to submerge and expose matrices to create a dynamic interface between air and media on the cell surface. Anchorage-dependent cells are grown on plastic flakes in the system. The flakes facilitate harvesting of whole cells for analysis. In the present studies, 5×10^7 cells were seeded in each perfusion flask and incubated at 37 C overnight. Flakes thereafter were sampled at regular intervals (FIG. 44), subjected to trypsinization and the harvested cells counted. When Tetrac or nanoparticulate Tetrac were initially added to the system, flasks contained 20-50×10^6 cells. Cell cultures were re-fed with 1% FBS-containing medium. Studies were carried out in duplicate flasks and replicated once. • Cell culture for harvesting of RNA. MDA-MB-231 cells were maintained in DMEM that was supplemented with 10% FBS in a 5% CO2/95% 02 air incubator at 37° C. For two days prior to exposure to Tetrac and nanoparticulate Tetrac, cells were maintained in 0.25% FBS that was stripped of estrogen and thyroid hormone. (See Lin et al., Biochemistry 42: 7571-7579 (2003)). • RNA microarray and analysis. Microarray analysis experiments were conducted as described previously. (See Glinsky et al., J Clin Invest 115: 1503-1521 (2005); Glinsky et al., J Clin Invest 113: 913-923 (2004); Glinsky et al., Clin Cancer Res 10: 2272-2283 (2004); and Glinsky et al., Mol Carcinog 37: 209-221 (2003)). […] Sample purity and integrity were verified with an Agilent BioAnalyzer (Santa Clara, Calif.). Expression analysis of 54,675 transcripts for each sample was by Affymetrix HG-U133A Plus 2.0 arrays. MAS5.0 software was used for data retrieval and analysis and concordant changes of gene expression in response to unmodified Tetrac and nanoparticulate Tetrac were defined by two-tailed t test at a threshold p value <0.01. Results • Effects of Tetrac and nanoparticulate Tetrac on MDA-MB-231 cell proliferation. […] Unmodified Tetrac at 10^−6M, introduced at day 0, inhibited cell proliferation by more than 30% by day 9. […] Actions shown here of nanoparticulate Tetrac on these pairs of genes are antithetic to tumor cell survival. […] A third pathway affected by the agents was that of the catenins. (See Takemaru et al., Nature 422: 905-909 (2003)). CBY1 is a potent inhibitor of β-catenin and the Wnt/β-catenin system, which are major survival pathways in cancer cells. CBY1 expression was induced by Tetrac and Tetrac NP.

[4] = test system: MCF7 and MCF7/R cells; assay: Intracellular accumulation of radiolabeled doxorubicin; assay type: cell-based; settings: 24 hours, presence of Tetrac
Method: The cells were incubated for 24 hours with doxorubicin in the absence or the presence of Tetrac, after that they were washed and then solubilized. Radioactivity associated with the cell lysates was counted and compared between the two cell lines either treated or not with Tetrac. The data represent an average of 3 determinations±SE.

SMILES: O=C(O)Cc1cc(I)c(Oc2cc(I)c(O)c(I)c2)c(I)c1 [Tetrac, tetraiodothyroacetic acid]
- Mean inhibition of angiogenesis (%) ([1]; FGF 100 ng + Tetrac or analog 10 μg/plug): 90 ± 13%
- Mean inhibition of angiogenesis (%) ([1]; T4 + antagonist, each 10 μg/matrigel plug): 89 ± 11%
- inhibition of FGF induced angiogenesis ([1]; Tetrac 10 μg): 85%
- inhibition of FGF induced angiogenesis ([1]; Tetrac 30 μg): 91%
- solubility in water [2]: difficult to solubilize in water
- BCL2L14 expression ([3]; MDA-MB-231): not a significant stimulatory action
- CASP2 expression ([3]; MDA-MB-231): not a significant stimulatory action
- CBY1 expression ([3]; MDA-MB-231): significantly increased
- MCL1 expression ([3]; MDA-MB-231): did not significantly affect
- THBS1 expression ([3]; MDA-MB-231): upregulation
- XIAP expression ([3]; MDA-MB-231): also acted on XIAP
- EGFR expression ([3]; MDA-MB-231 (FIG. 50)): ineffective
- intracellular accumulation of radiolabeled doxorubicin [4]: increased significantly

— patent US9839614B2, “Nanoparticle and polymer formulations for thyroid hormone analogs, antagonists, and formulations and uses thereof” (NANOPHARMACEUTICALS LLC, priority 2009, dated 2017)
